Experimental data reported in patent publication US20260102501A1, “ANTI-CANCER NUCLEAR HORMONE RECEPTOR-TARGETING COMPOUNDS” (Nuvation Bio Inc., priority 2022, published 2026).

What was measured:
[1] = system: LNCap cells; assay: Cell viability assay (CellTiterGlo); format: cell-based; conditions: Homo sapiens, 144 h, read-out: LNCap (IC50, nM)
[2] = target: T1, GR (cytosol from IM-9 cells) (Homo sapiens, UniProt P04150); assay: GR binding assay (3H-Dexamethasone displacement)
T1 sequence (P04150 1-777): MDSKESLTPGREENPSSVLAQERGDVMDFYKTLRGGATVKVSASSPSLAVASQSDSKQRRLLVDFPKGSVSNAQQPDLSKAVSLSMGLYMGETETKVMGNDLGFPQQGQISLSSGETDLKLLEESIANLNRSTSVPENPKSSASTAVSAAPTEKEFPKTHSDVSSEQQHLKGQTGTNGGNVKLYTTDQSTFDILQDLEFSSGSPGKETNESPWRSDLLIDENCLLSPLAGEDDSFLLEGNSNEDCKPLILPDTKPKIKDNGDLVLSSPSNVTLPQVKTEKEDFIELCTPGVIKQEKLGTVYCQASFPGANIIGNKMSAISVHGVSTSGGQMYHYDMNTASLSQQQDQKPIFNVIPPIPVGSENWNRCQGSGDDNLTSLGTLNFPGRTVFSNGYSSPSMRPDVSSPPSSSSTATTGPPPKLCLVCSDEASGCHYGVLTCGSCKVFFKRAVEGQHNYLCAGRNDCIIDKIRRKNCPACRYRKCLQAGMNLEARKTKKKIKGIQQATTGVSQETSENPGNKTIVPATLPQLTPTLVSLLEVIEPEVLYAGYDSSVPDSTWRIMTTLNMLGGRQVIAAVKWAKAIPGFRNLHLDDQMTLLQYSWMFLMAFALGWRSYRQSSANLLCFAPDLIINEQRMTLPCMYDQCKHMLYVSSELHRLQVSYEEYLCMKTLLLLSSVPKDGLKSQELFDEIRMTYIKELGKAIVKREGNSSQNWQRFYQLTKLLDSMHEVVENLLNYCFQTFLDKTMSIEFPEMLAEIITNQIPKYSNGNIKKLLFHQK

[3] = target: T2, AR (cytosol from LnCaP cells) (Homo sapiens, UniProt P10275, T878A); assay: AR binding assay (3H-R1881 displacement)
T2 sequence (P10275 1-920 T878A): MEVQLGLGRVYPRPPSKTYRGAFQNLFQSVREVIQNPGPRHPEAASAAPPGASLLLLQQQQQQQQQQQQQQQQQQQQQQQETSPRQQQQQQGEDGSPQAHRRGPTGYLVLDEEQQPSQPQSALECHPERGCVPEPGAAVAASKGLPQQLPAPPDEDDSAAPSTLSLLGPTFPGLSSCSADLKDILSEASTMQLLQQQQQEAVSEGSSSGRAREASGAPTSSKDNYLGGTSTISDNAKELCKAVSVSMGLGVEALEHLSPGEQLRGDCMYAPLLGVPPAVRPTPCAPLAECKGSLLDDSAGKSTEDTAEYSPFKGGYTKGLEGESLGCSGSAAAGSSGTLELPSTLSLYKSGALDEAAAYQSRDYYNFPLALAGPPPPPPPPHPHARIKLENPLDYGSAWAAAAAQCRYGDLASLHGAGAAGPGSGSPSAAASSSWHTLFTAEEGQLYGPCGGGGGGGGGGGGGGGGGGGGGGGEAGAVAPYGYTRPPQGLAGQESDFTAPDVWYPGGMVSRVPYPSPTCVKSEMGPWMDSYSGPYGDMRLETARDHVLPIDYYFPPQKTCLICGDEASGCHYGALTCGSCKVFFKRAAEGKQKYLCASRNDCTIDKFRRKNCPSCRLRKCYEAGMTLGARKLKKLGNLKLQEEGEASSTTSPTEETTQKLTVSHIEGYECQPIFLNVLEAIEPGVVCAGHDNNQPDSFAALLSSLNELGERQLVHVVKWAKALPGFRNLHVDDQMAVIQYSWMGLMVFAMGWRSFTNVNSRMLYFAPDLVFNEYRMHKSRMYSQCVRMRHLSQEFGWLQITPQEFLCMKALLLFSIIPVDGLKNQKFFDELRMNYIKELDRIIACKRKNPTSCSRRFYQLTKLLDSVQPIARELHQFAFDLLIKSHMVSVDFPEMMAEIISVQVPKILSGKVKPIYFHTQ
Experimental: The plate was then centrifuged at 3000 rpm for 30 minutes at 4° C.

[4] = system: T47D cells; assay: Cell viability assay (CellTiterGlo); format: cell-based; conditions: Homo sapiens, 144 h, read-out: T47D (IC50, nM)
[5] = target: T3, ligand binding domain of the glucocorticoid receptor (HEK293 cells stably expressing) (Homo sapiens, UniProt P04150); assay: GR antagonism assay (luciferase reporter)
T3 sequence (P04150 524-758 limits assumed): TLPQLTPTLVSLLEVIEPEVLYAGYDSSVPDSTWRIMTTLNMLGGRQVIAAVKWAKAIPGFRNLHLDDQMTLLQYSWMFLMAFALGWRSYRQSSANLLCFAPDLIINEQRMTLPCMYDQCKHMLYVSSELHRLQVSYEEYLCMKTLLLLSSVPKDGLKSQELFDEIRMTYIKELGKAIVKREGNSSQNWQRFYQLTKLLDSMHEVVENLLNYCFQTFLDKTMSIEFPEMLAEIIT

[6] = system: IEC6 cells; assay: Cell viability assay (CellTiterGlo); conditions: Rattus norvegicus, IEC-6, 144 h, read-out: IEC-6 (IC50, nM)
[7] = target: T4, Progesterone Receptor (PR)-LBD and coactivator peptide (Homo sapiens, UniProt P06401); assay: PR coactivator antagonist assay; conditions: 2.5 nM PR-LBD, 10 nM progesterone-induced fluorescence response
T4 sequence (P06401 679-913 limits assumed): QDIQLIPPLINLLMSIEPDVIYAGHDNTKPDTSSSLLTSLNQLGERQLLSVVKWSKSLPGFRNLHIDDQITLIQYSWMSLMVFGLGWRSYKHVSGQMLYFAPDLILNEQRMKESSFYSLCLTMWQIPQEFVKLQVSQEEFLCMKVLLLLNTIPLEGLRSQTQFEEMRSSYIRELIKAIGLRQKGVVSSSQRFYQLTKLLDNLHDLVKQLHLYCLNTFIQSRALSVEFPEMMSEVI

[8] = target: T5, Progesterone PR-B receptors from human breast carcinoma T47D cells (Homo sapiens, UniProt P06401); assay: PR binding assay ([3H] Progesterone displacement)
T5 sequence (P06401 1-933): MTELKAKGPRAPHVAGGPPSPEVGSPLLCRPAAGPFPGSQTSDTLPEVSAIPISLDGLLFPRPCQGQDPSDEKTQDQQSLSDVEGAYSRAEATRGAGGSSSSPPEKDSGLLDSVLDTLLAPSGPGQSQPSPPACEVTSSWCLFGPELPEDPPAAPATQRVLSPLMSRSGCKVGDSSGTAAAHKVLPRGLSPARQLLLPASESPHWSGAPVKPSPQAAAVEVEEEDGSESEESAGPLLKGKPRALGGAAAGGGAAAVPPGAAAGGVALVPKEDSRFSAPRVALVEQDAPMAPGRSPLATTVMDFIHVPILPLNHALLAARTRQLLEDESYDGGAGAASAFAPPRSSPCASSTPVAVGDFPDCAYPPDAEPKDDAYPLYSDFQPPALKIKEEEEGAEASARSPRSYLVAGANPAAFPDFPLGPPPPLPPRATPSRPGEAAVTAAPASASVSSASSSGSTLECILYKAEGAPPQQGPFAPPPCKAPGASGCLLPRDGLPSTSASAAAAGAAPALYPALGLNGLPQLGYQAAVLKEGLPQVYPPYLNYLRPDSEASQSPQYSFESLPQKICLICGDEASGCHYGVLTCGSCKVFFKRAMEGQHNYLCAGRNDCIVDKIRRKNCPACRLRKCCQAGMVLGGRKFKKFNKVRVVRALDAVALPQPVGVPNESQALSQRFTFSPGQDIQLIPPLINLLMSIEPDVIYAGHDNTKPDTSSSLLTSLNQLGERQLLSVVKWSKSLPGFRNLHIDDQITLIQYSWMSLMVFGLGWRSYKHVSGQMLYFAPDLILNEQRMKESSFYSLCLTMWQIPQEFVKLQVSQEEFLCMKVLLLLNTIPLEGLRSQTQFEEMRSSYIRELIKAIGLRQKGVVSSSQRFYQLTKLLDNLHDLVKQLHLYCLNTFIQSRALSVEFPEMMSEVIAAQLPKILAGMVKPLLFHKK

| SMILES | IC50 [1] | IC50 [2] | IC50 [3] | IC50 [4] | IC50 [5] | IC50 [6] | PR antagonism [7] | IC50 [8] |
| --- | --- | --- | --- | --- | --- | --- | --- | --- |
| CC[C@@]1(O)C(=O)OCc2c1cc1n(c2=O)Cc2cc3c(CN4CCN(C)CC4)c(OC(=O)N4CCN(CCCCCCN(C)c5ccc([C@H]6C[C@@]7(C)[C@@H](CC[C@]7(OC(C)=O)C(C)=O)[C@@H]7CCC8=CC(=O)CCC8=C76)cc5)CC4)ccc3nc2-1 [Compound 5, (S)-4-Ethyl-4-hydroxy-10-((4-methylpiperazin-1-yl)methyl)-3,14-dioxo-3,4,12,14-tetrahydro-1H-pyrano[3′,4′:6,7]indolizino[1,2-b]quinolin-9-yl 4-(6-((4-((8S,11R,13S,14S,17R)-17-acetoxy-17-acetyl-13-methyl-3-oxo-2,3,6,7,8,11,12,13,14,15,16,17-dodecahydro-1H-cyclopenta[a]phenanthren-11-yl)phenyl)(methyl)amino)hexyl)piperazine-1-carboxylate] | 101 to 1000 nM | < 10 nM | 10 to 100 nM | 101 to 1000 nM | 10 to 100 nM | > 1000 nM | a (IC50 =< 10 nM) | < 10 nM |
| CC[C@@]1(O)C(=O)OCc2c1cc1n(c2=O)Cc2cc3c(CN(C)C)c(OC(=O)N4CCN(CCCCCN(C)c5ccc([C@H]6C[C@@]7(C)[C@@H](CC[C@]7(OC(C)=O)C(C)=O)[C@@H]7CCC8=CC(=O)CCC8=C76)cc5)CC4)ccc3nc2-1 [Compound 8, (S)-10-((Dimethylamino)methyl)-4-ethyl-4-hydroxy-3,14-dioxo-3,4,12,14-tetrahydro-1H-pyrano[3′,4′:6,7]indolizino[1,2-b]quinolin-9-yl 4-(5-((4-((8S,11R,13S,14S,17R)-17-acetoxy-17-acetyl-13-methyl-3-oxo-2,3,6,7,8,11,12,13,14,15,16,17-dodecahydro-1H-cyclopenta[a]phenanthren-11-yl)phenyl)(methyl)amino)pentyl)piperazine-1-carboxylate] | 101 to 1000 nM | 10 to 100 nM | < 10 nM | 10 to 100 nM | 10 to 100 nM | 101 to 1000 nM | a (IC50 =< 10 nM) | < 10 nM |
| CC[C@@]1(O)C(=O)OCc2c1cc1n(c2=O)Cc2cc3c(CN(C)C)c(OC(=O)N4CCN(CCCCCCCCN(C)c5ccc([C@H]6C[C@@]7(C)[C@@H](CC[C@]7(OC(C)=O)C(C)=O)[C@@H]7CCC8=CC(=O)CCC8=C76)cc5)CC4)ccc3nc2-1 [Compound 7, (S)-10-((Dimethylamino)methyl)-4-ethyl-4-hydroxy-3,14-dioxo-3,4,12,14-tetrahydro-1H-pyrano[3′,4′:6,7]indolizino[1,2-b]quinolin-9-yl 4-(8-((4-((8S,11R,13S,14S,17R)-17-acetoxy-17-acetyl-13-methyl-3-oxo-2,3,6,7,8,11,12,13,14,15,16,17-dodecahydro-1H-cyclopenta[a]phenanthren-11-yl)phenyl)(methyl)amino)octyl)piperazine-1-carboxylate] | 101 to 1000 nM | < 10 nM | 10 to 100 nM | 101 to 1000 nM | 10 to 100 nM | > 1000 nM | a (IC50 =< 10 nM) | < 10 nM |
| CCCCCCC(=O)O[C@]1(CC)C(=O)OCc2c1cc1n(c2=O)Cc2cc3c(CN(C)C)c(OC(=O)N4CCN(CCCCCCN(C)c5ccc([C@H]6C[C@@]7(C)[C@@H](CC[C@]7(OC(C)=O)C(C)=O)[C@@H]7CCC8=CC(=O)CCC8=C76)cc5)CC4)ccc3nc2-1 [Compound No. 12, (S)-10-((Dimethylamino)methyl)-4-ethyl-4-(heptanoyloxy)-3,14-dioxo-3,4,12,14-tetrahydro-1H-pyrano[3′,4′:6,7]indolizino[1,2-b]quinolin-9-yl 4-(6-((4-((8S,11R,13S,14S,17R)-17-acetoxy-17-acetyl-13-methyl-3-oxo-2,3,6,7,8,11,12,13,14,15,16,17-dodecahydro-1H-cyclopenta[a]phenanthren-11-yl)phenyl)(methyl)amino)hexyl)piperazine-1-carboxylate] | > 1000 nM | < 10 nM | 101 to 1000 nM | > 1000 nM | 10 to 100 nM | > 1000 nM | a (IC50 =< 10 nM) | < 10 nM |
